Results reported in patent publication US8937167B2 (Washington University, priority 2009, dated 2015).
pKd: −log10 of the molar value. “Also recorded” adds a separate entry of the source. Where two headings read alike, the source gives them in different places.

Tests used:
FimH = FimH (Escherichia coli, UniProt Q1R2J4); settings: Examples 30-36 numbering;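 further: hemagglutination inhibition of guinea pig erythrocytes agglutinated by type 1 piliated uropathogenic E. coli via FimH mannose binding, quantified through serial dilutions of compound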
Procedure: In some embodiments, activity of the compound is measured using hemmagglutination titer of guinea pig red blood cells. Hemagglutination of guinea pig red blood cells by type1 piliated UPEC is dependent upon FimH mannose binding ability and serial dilutions allow a quantitative analysis.
Biological activity against FimH was evaluated using a guinea pig red blood cell-based hemagglutination (HA) assay (ref) in which the concentration of the mannoside on reducing agglutination by 50% was used as the primary endpoint (50% HA titer).
Hemagglutination of guinea pig red blood cells by type1 piliated UPEC is dependent upon FimH mannose binding ability. Serial dilutions allow a quantitative analysis using this assay.
Hemagglutination assays for mannose-sensitive agglutination of guinea pig red blood cells were performed as previously described.

FimH lectin domain = biological target: T1, FimH lectin domain (Escherichia coli, UniProt P08191); test: biochemical; assay type: binding, E. coli
T1 construct: made by biotinylating FimH lectin domain^25 at a 1:1 molar ratio with NHS-PEO4-Biotin
Procedure: Samples or buffer (200 μL per well) were dispensed into 96-well microtiter plates (Greiner Bio-One, Monroe N.C.) and maintained at 30° C. with 1000 RPM shaking. Pre-manufactured pins for individual assays were made by biotinylating FimH lectin domain^25 at a 1:1 molar ratio with NHS-PEO4-Biotin (Thermo Fisher, Rockford Ill.), diluting it to 50 μg/ml in 20 mM HEPES pH 7.5, 150 mM NaCl (HBS), immobilizing it on high-binding streptavidin-coated biosensor tips (Super Streptavidin, ForteBio, Inc., Menlo Park, Calif.) for 10 minutes at 30° C., blocking the pins with 10 μg/ml biocytin for 2 minutes, washing in HBS for 1 hour, and rinsing in 15% sucrose in HBS. Pins were then air dried for 30 minutes and stored in their original packaging with a dessicant packet. Assays were performed by re-wetting premade pins with HBS for 15 minutes, then storing them in fresh HBS until use. […] Each experimental pin was referenced to a biocytin-blocked pin to control for instrument drift and a second biocytin-blocked pin that was passed through a duplicate experiment in the same 96-well plate to control for nonspecific binding of the compound to the pin. Kinetics data and affinity constants were generated automatically by the global fitting protocol in ForteBio Data Analysis version 6.3.

UTI89 biofilm = test: Disruption of preformed UTI89 biofilm (PVC plates, coverslips, confocal); assay type: cell-based, uropathogenic E. coli UTI89; settings: mannoside added to 24 h biofilm, further 16 h; confocal at 0.3 μM
Procedure: UTI89 biofilm was grown in LB+/− mannoside for 24 h at 22° C. in PVC plates and quantitated using crystal violet. UTI89 biofilm for confocal microscopy was grown in LB for 24 h at 22° C. on PVC coverslips. Mannoside was then added and biofilm was grown for an additional 16 h. Coverslips were then washed in PBS, fixed in 2% paraformaldehyde and stained with SYTO9 prior to confocal microscopy. For all animal experiments UTI89 or PBC-1 was grown 2×24 h statically in LB at 37° C. and inoculated at a dose of 1×10^7 bacteria in 50 μl. All mice used were female C3H/HeN (Jackson). For the pretreatment studies, bacteria were incubated with mannoside for 20 min prior to inoculation into the mouse. […] After growth at 37° C. overnight, bacterial counts were determined. […]
Biofilm assay. […] After 48 h of growth, wells were rinsed with water and stained with crystal violet for quantification as described. […] Wells were then rinsed, stained with crystal violet and quantified. […]
UTI89 was grown in LB in PVC plates and allowed to form biofilm at RT for 24 or 48 h. […] Biofilm formation was then quantitated using the standard crystal violet assay. […]
UTI89 was grown in LB broth in wells of PVC microtiter plates at 23° C. in the presence of individual mannosides at varying concentrations. After 48 h of growth, wells were rinsed with water and stained with crystal violet for quantification as described. […]

PBC-1 [1] = test: Mouse bladder infection with TMP-SMZ resistant strain, with or without TMP-SMZ in drinking water; assay type: in vivo, E. coli (UPEC); host C3H/HeN mouse; settings: 6 hpi, mannoside IP 30 min prior and/or TMP-SMZ 3 days in drinking water
PBC-1 [2] = test: Growth curve / MIC determination in LB; assay type: cell-based, E. coli (UPEC); settings: 100 μM mannoside, varying TMP-SMZ
Procedure: Growth curve. […] Mannoside ZFH-2056 was added at 100 μM. Growth curves were performed in a 96-well plate at 37° C. with A600 readings taken every 30 min for 8 h.
Mannoside 6 was added at 100 μM. Growth curves were performed in a 96-well plate at 37° C. with A600 readings taken every 30 min for 8 h. Minimum inhibitory concentration (MIC) was calculated as the lowest concentration of antibiotic that prevented growth of the bacterial strain.

Structure (SMILES)	HAI Titer EC>90 (FimH; Table 17) [µM]	HAI Titer EC>90 (FimH; Table 20) [µM]	Kd, qualitative (FimH lectin domain)	pKd (FimH lectin domain; Table 20, read-out: Octet Kd)	disruption / dispersal of preformed biofilm, qualitative (UTI89 biofilm)	bladder bacterial CFUs (PBC-1 [1])	effect on efficacy of TMP-SMZ killing in vitro (PBC-1 [2])
COC(=O)c1cccc(-c2ccc(O[C@H]3O[C@H](CO)[C@@H](O)[C@H](O)[C@@H]3O)cc2)c1 [Compound 1, phenyl mannoside, reference compound]	1.00	1.000	picomolar range	10.10			
CNC(=O)c1cc(C(=O)NC)cc(-c2ccc(O[C@H]3O[C@H](CO)[C@@H](O)[C@H](O)[C@@H]3O)cc2)c1 [ZFH-2056]					lacked continuity; also recorded: dispersed biofilm	significant drop in bacterial load	not found to increase the efficacy of TMP-SMZ killing
